We go through 7 molecules from patent US11795190B2, “D-glycero-B-D-heptose 1-phosphate (HMP) conjugates and use for targeted immune modulation” (NATIONAL RESEARCH COUNCIL OF CANADA, priority 2017, dated 2023).

Assay [1] has as its system TIFA knockout (TIFA KO) HEK 293T cells encoding an NF-κB-driven luciferase reporter gene. Briefly: NF-κB-driven luciferase reporter assay in TIFA knockout HEK 293T cells. It counts as cell-based, human. The method, then: (§1) FIGS. 10A-B. Effect of chemically synthesised analogues on human embryonic kidney cells (HEK 293T) encoding an NF-κB-driven luciferase reporter gene. NF-κB luciferase activity was measured in wild type (WT) or TIFA knockout (TIFA KO) cells treated with compounds in the presence of digitonin for 20 min, washed, and then cultured in normal medium without the synthetic compounds for 6 hrs after treatment, before luciferase activity was measured. (A) Cells were treated with 10 μg/mL of the indicated compound. Data are means±standard error mean of technical triplicates. (B) Cells were treated with two different molar concentrations of compound (30 μM or 150 μM). Two batches of DD-β-HBP and DD-β-HMP synthesized independently of one another were tested (batch #1 and batch #2) to assess consistency of the chemical synthesis. Data are means±standard error mean of technical triplicates and are representative of three independent experiments. JS-12: D-glycero-D-manno-heptose; JS-2: D-glycero-D-manno-heptose 7-phosphate; JS-7:D-glycero-β-D-manno-heptose-phosphate; JS-8: D-glycero-α-D-manno-heptose-phosphate; JS-9: β-D-mannose phosphate; JS-6:D-glycero-β-D-manno heptose 1,7-biphosphate; JS-5: D-glycero-α-D-manno heptose 1,7-biphosphate.

The subject of assay [2] is HEK 293T cells encoding an NF-κB-driven luciferase reporter gene. Briefly: NF-κB-driven luciferase reporter assay in HEK 293T cells. It counts as cell-based, human. Conditions: digitonin 20 min; for inflammatory NF-κB response (luciferase activity): FIG. 10, WT HEK 293T, 10 μg/mL or 30 μM/150 μM, luciferase after 6 hrs. The method, then: as §1
FIG. 12. Effects of compounds/products according to the invention on HEK 293T cells encoding an NF-κB-driven luciferase reporter gene. HEK 293T cells were transfected with a plasmid encoding an NF-κB-driven luciferase reporter. After 24 hours, cells were stimulated for 20 minutes in permeabilization buffer (5 μg/mL digitonin) in the presence of water or 10 μg/mL, 30 μg/mL, or 50 μg/mL of indicated synthetic compounds according to the invention. Treatment was removed; cells were washed and incubated for 6 hours incomplete medium. A luciferase assay was then performed. JS-12a control: D-glycero-D-manno heptose. The results are the means±standard error of the mean of three technical replicates. JS-10: 7-O-(Aminoethyl)-D-glycero-β-D-manno-heptopyranose phosphate; JS-11: 7-O-(Aminoethyl)-D-glycero-D-manno-heptopyranose; JS-12: D-glycero-D-manno-heptose; Js-13: pH-Rhodo-7-O-(aminoethyl)-D-glycero-β-D-manno-heptopyranose phosphate.
FIG. 14. Effects of compounds/products according to the invention on HEK 293T cells encoding an NF-κB-driven luciferase reporter gene. HEK 293T cells were transfected with a plasmid encoding an NF-κB-driven luciferase reporter. After 24 hours, cells were stimulated for 20 minutes in permeabilization buffer (5 μg/mL digitonin) in the presence of water, or either 30 μM or 150 μM of indicated synthetic compounds according to the invention. Treatment was removed; cells were washed and incubated for 6 hours in complete medium. A luciferase assay was then performed. […]

Assay [3] deals with human colonic epithelial cells (HCT 116), wild type. Briefly: IL-8 ELISA in wild type HCT 116 cells after digitonin-permeabilised stimulation. It is filed as cell-based. Conditions: WT HCT 116, digitonin 20 min. The method, then: (§2) Wild type (WT) or TIFA knockout (TIFA KO) cells were treated with compounds in the presence of digitonin for 20 min, treatment was removed, cells were washed and then cultured in normal medium without the synthetic compounds for 6 hr before IL-8 levels in culture supernatants were measured by ELISA. (A) Cells were treated with water or 10 μg/mL of the indicated compound. Data are means±standard error mean of technical triplicates. (B) Cells were treated with the NOD1 agonist C12-iE-DAP (39.8 μM) or with two different molar concentrations of compounds (30 μM or 150 μM). Two batches of dd-β-HBP and dd-β-HMP synthesized independently of one another were tested (batch #1 and batch #2) to assess consistency of the chemical synthesis. Data are means±standard error mean of two (150 μM treatment) or three (all other treatments) independent experiments. Nod1 agonist: C12-iE-DAP (20 μg/ml, 39.8 μM); JS-12: D-glycero-D-manno-heptose; JS-2: D-glycero-D-manno-heptose 7-phosphate; JS-7:D-glycero-β-D-manno-heptose-phosphate; JS-8: d-glycero-α-d-manno-heptose-phosphate; JS-9: β-d-mannose phosphate; JS-6:d-glycero-β-d-manno heptose 1,7-biphosphate; JS-5: d-glycero-α-d-manno heptose 1,7-biphosphate.
(§3) FIG. 11. Stimulation of human colonic epithelial cells by compounds/products according to the invention. Human colonic epithelial cells (HCT 116) that were either wild type (WT) or deficient in TIFA protein expression (knockout, KO) were stimulated for 20 minutes in permeabilization buffer (5 μg/mL digitonin) in the presence of water or 10 μg/mL, 30 μg/mL, or 50 μg/mL of indicated synthetic compounds according to the invention. Treatment was removed, cells were washed, and cells were incubated for 6 hours in complete media before IL-8 levels in culture supernatants was measured by ELISA. The results are the mean±standard error of the mean of three technical replicates. JS-10: 7-O-(Aminoethyl)-D-glycero-β-D-manno-heptopyranose phosphate; JS-11: 7-O-(Aminoethyl) -D-glycero-D-manno-heptopyranose; JS-12: D-glycero-D-manno-heptose; Js-13: pH-Rhodo -7-O-(aminoethyl)-D-glycero-β-D-manno-heptopyranose phosphate.
FIG. 13. […] Treatment was removed, cells were washed, and cells were incubated for 6 hours in complete media before IL-8 levels in culture supernatants were measured by ELISA. The results are the mean±standard error of the mean of two (150 μM treatment) or three (all other treatments) independent experiments. #=none detected, JS-10: 7-O-(Aminoethyl)-d-glycero-β-d-manno-heptopyranose phosphate; JS-14: Biotin-7-O-(aminoethyl)-d-glycero-β-d-manno-heptopyranose phosphate, Nod1 agonist: C12-iE-DAP (20 μg/ml, 39.8 μM).
FIG. 16. […] Treatment was removed, cells were washed, and cells were incubated for 6 hours in complete media before IL-8 levels in culture supernatants were measured by ELISA. […]
In general terms: An ELISA detects its analyte on a solid surface through an enzyme-linked reagent.

Assay [4] relates to HCT 116 cells deficient in TIFA protein expression (TIFA KO). Briefly: IL-8 ELISA in TIFA knockout HCT 116 cells. Conditions: TIFA KO HCT 116. It counts as cell-based, human. The method, then: as §2, §3
(§4) FIG. 13. Stimulation of human colonic epithelial cells by compounds/products according to the invention. Human colonic epithelial cells (HCT 116) that were either wild type (WT) or deficient in TIFA protein expression (knockout, TIFA KO) were stimulated for 20 minutes in permeabilization buffer (5 μg/mL digitonin) in the presence of water, 20 μg/mL of the Nod1 agonist C12-iE-DAP (39.8 μM, which induces inflammation in a TIFA-independent manner) or 30 μM or 150 μM of synthetic compound according to the invention. Treatment was removed, cells were washed, and cells were incubated for 6 hours in complete media before IL-8 levels in culture supernatants were measured by ELISA. The results are the mean±standard error of the mean of two (150 μM treatment) or three (all other treatments) independent experiments. #=none detected, JS-10: 7-O-(Aminoethyl)-d-glycero-β-d-manno-heptopyranose phosphate; JS-14: Biotin-7-O-(aminoethyl)-d-glycero-β-d-manno-heptopyranose phosphate, Nod1 agonist: C12-iE-DAP (20 μg/ml, 39.8 μM).
as §4, with “16.” for “13.”, “of” for “of the mean of two (150 μM treatment) or”, “technical replicates. […]” for “(all other treatments) independent experiments. #=none detected, JS-10: 7-O-(Aminoethyl)-d-glycero-β-d-manno-heptopyranose phosphate; JS-14: Biotin-7-O-(aminoethyl)-d-glycero-β-d-manno-heptopyranose phosphate, Nod1 agonist: C12-iE-DAP (20 μg/ml, 39.8 μM).”

Assay [5] concerns human macrophage cells (THP-1). Briefly: IL-8 ELISA in THP-1 cells after digitonin-permeabilised stimulation. It is filed as cell-based. As to conditions: FIG. 15, higher (150 μM) concentrations, digitonin 20 min, IL-8 after 6 hours. As for the experimental part: FIG. 15. Stimulation of human macrophages by compounds/products according to the invention. Human macrophage cells (THP-1) were stimulated for 20 minutes in permeabilization buffer (5 μg/mL digitonin) in the presence of water, 39.8 μM of the Nod1 agonist C12-iE-DAP (which stimulates in a TIFA-independent manner), or either 30 μM or 150 μM of synthetic compound according to the invention. Treatment was removed, cells were washed, and cells were incubated for 6 hours in complete media before the IL-8 levels in culture supernatants were measured by ELISA. The results are the mean and standard error of the mean of three technical replicates. Nod1 agonist: C12-iE-DAP (20 μg/ml, 39.8 μM); JS-7: JS-7:D-glycero-β-D-manno-heptose-phosphate; JS-10: 7-O-(Aminoethyl)-D-glycero-β-D-manno-heptopyranose phosphate; JS-14: Biotin-7-O-(aminoethyl)-D-glycero-β-D-manno-heptopyranose phosphate.

[6] abbreviates: FIG. 10, TIFA KO HEK 293T, 10 μg/mL or 30 μM/150 μM.
Setting [7] is: FIG. 9, 10 μg/mL or 30 μM/150 μM, IL-8 after 6 hr.
Where [8] appears, read: FIG. 9, 10 μg/mL or 30 μM/150 μM.
Where [9] appears, read: FIG. 13, 30 μM or 150 μM (Nod1 agonist 39.8 μM).
Setting [10] is: FIG. 17, TIFA KO cells, 30 μM or 150 μM.
The mark [11] stands for this setting: FIG. 16, 30 μM or 150 μM (Nod1 agonist 39.8 μM).

As for `O=P(O)(O)OC[C@@H](O)[C@H]1O[C@@H](OP(=O)(O)O)[C@@H](O)[C@@H](O)[C@@H]1O` [JS6, D-glycero-β-D-manno heptose 1,7-biphosphate, reference compound], the “activity in TIFA KO cells (NF-κB luciferase), TIFA dependence” value in assay [1] (setting [6]) is “relative absence of activity”. Besides, the “inflammatory NF-κB response (luciferase activity)” value in assay [2] was “inflammatory NF-κB response”. In assay [3] (setting [7]), the “inflammatory response (IL-8 in culture supernatant)” value was “inflammatory response”. Moreover, the “activity in TIFA KO cells (IL-8), TIFA dependence” value (shortened to “activity … (IL-8), TIFA dependence”) in assay [4] (setting [8]) is listed as “relative absence of activity”.
For `O=P(O)(O)O[C@@H]1O[C@H]([C@H](O)CO)[C@@H](O)[C@H](O)[C@@H]1O` [JS7, D-glycero-β-D-manno-heptose-phosphate], in assay [1] (setting [6]), the “activity in TIFA KO cells (NF-κB luciferase), TIFA dependence” value is listed as “relative absence of activity”. In addition, the “inflammatory NF-κB response (luciferase activity)” value in assay [2] was “inflammatory NF-κB response similar to that apparent with DD-β-HBP (JS6)”. The “inflammatory response (IL-8 in culture supernatant)” value in assay [3] (setting [7]) is “inflammatory response similar to that apparent with DD-β-HBP (JS6)”. Further, the “activity … (IL-8), TIFA dependence” value in assay [4] (setting [8]) is “relative absence of activity”.
With `O=C(CCCCC1SCC2NC(=O)NC21)NCCOC[C@@H](O)C1O[C@@H](OP(=O)([O-])[O-])C(O)C(O)[C@@H]1O.[Na+].[Na+]` (stereo partly drawn) [JS-14a], the “activity in TIFA KO cells (NF-κB luciferase), TIFA dependence” value in assay [1] (FIG. 14, TIFA KO cells, 30 μM or 150 μM) is listed as “relative absence of activity”. The “inflammatory response (IL-8 in culture supernatant)” value in assay [5] was “stimulate an inflammatory response”. Besides, in assay [4] (setting [9]), the “activity … (IL-8), TIFA dependence” value was “relative absence of activity”.
For the molecule `O=C(CCCCC1SCC2NC(=O)NC21)NCCOCCOCCOCCOCCC(=O)NCCOC[C@@H](O)C1O[C@@H](OP(=O)(O)O)C(O)C(O)[C@@H]1O` (stereo partly drawn) [JS-24a, Biotin-PEG4-7-O-(aminoethyl)-D-glycero-β-D-manno-heptopyranose phosphate], the “activity in TIFA KO cells (NF-κB luciferase), TIFA dependence” value in assay [1] (setting [10]) is reported as “relative absence of activity”. The “activity … (IL-8), TIFA dependence” value in assay [4] (setting [11]) was “relative absence of activity”.
With `CCCCCCCCCCCC(=O)N[C@H](CCC(=O)NC(CCCC(N)C(=O)O)C(=O)O)C(=O)O` (stereo partly drawn) [Nod1 agonist, C12-iE-DAP, reference compound], the “activity … (IL-8), TIFA dependence” value in assay [4] (setting [9]) and in assay [4] (setting [11]) was “not TIFA-dependent” throughout.
As to “Fluorescein-7-O-(aminoethyl)-D-glycero-β-D-manno-heptopyranose phosphate [JS-25a]”, the “activity in TIFA KO cells (NF-κB luciferase), TIFA dependence” value in assay [1] (setting [10]) was “relative absence of activity”. Moreover, the “activity … (IL-8), TIFA dependence” value in assay [4] (setting [11]) is “relative absence of activity”.
On to “pH-Rhodo-7-O-(aminoethyl)-D-glycero-β-D-manno-heptopyranose phosphate [JS-13a]”, for which the “activity in TIFA KO cells (NF-κB luciferase), TIFA dependence” value in assay [1] (FIG. 12, TIFA KO cells, 10, 30 or 50 μg/mL) is listed as “relative absence of activity”. The “inflammatory response (NF-κB luciferase)” value in assay [2] (FIG. 12, HEK 293T, 10, 30 or 50 μg/mL, luciferase after 6 hours) is reported as “strong inflammatory response”. In assay [3] (FIG. 11, 10, 30 or 50 μg/mL, IL-8 after 6 hours), the “inflammatory response (IL-8 in culture supernatant)” value is reported as “strong inflammatory response”. Also, the “activity … (IL-8), TIFA dependence” value in assay [4] (FIG. 11, 10, 30 or 50 μg/mL) is given as “relative absence of activity”.
